From patent publication US4994376A, “Detection of bacteroides gingivalis” (priority 1987, dated 1991)
“And” between values parts separate entries of the source, which are not always exact repeats. Equal values may be shown once. Read-outs that look alike come from different tables or passages of the source. Peptide text beside a SMILES is read from it.

Tests used:
Type in all cases: biochemical
Capnocytophaga sp. = tested on: Capnocytophaga sp.
Experimental: (§1) The enzyme activity was measured by the chromogenic properties of N-CBz-glycyl-glycyl-L-arginine-β-naphthylamide which upon hydrolysis gives a visible color. The aminopeptidase activities listed in the table reflect the nanomoles of β-naphthylamine liberated after 60 minutes under the conditions described below.
(§2) After mixing, the solution is incubated for 1 hour at 37° C. and then 0.4 ml of a solution of stabilized diazonium salt, Fast Garnet GBC (0.5 mg/ml) in a 1M acetic acid buffer (pH 4.2), containing 10% Tween 20 was added to the mixture. After standing for 15 minutes at room temperature, the color reaction can be read manually by comparison with standard solutions or the absorbancy can be determined using a spectrophotometer at 525 nm. The reaction mixture without enzyme solution is used as a control.

B. mel. ss. intermedius = tested on: B. mel. ss. intermedius
Experimental: as §1, §2

B. levii = tested on: B. levii
Experimental: as §1, §2

C. ochracea = tested on: C. ochracea
Experimental: as §1, §2

B. loescheii = tested on: B. loescheii
Experimental: as §1, §2

[1] = tested on: Capnocytophaga gingivalis
Experimental: as §1, §2

B. corporis = assay: Aminopeptidase activity on β-naphthylamide substrates
Experimental: as §1, §2

B. melaninogenicus = assay: as above
Experimental: as §1, §2

C. sputigena = assay: as above
Experimental: as §1, §2

B. intermedius = assay: as above
Experimental: as §1, §2

B. denticola = assay: as above
Experimental: as §1, §2

S. sanguis = tested on: S. sanguis
Experimental: as §1, §2
(§3) The enzyme activity and the aminopeptidase activities were determined in the manner described above in regard to Table I.

Campylobacter sputorum = tested on: Campylobacter sputorum
Experimental: as §1, §2, §3

V. parvula = tested on: V. parvula
Experimental: as §1, §2, §3

"Anaerobic vibrio" = tested on: "Anaerobic vibrio"
Experimental: as §1, §2, §3

S. mutans = tested on: S. mutans
Experimental: as §1, §2, §3

Eikenella corrodens = tested on: Eikenella corrodens
Experimental: as §1, §2, §3

Veillonella sp. = tested on: Veillonella sp.
Experimental: as §1, §2, §3

A. viscosus = tested on: A. viscosus
Experimental: as §1, §2, §3

A. seminis = tested on: A. seminis
Experimental: as §1, §2, §3

Fusobacterium nucleatum = tested on: Fusobacterium nucleatum
Experimental: as §1, §2, §3

L. fermentum = assay: Aminopeptidase activity on β-naphthylamide substrates
Experimental: as §1, §2, §3

F. periodonticum = assay: as above
Experimental: as §1, §2, §3

Lactobacillus casei = assay: as above
Experimental: as §1, §2, §3

Haemophilus aphrophilus = assay: as above
Experimental: as §1, §2, §3

Veillonella alcalesens = assay: as above
Experimental: as §1, §2, §3

A. equuli = assay: as above
Experimental: as §1, §2, §3

A. suis = assay: as above
Experimental: as §1, §2, §3

NCCCC[C@H](N)C(=O)N1CCC[C@H]1C(=O)O [Lys-Pro, Lysyl-proline] (H-Lys-Pro-OH)
Aminopeptidase activity (Capnocytophaga sp.): 35
Aminopeptidase activity (B. mel. ss. intermedius): 54 and 75 and 69
Aminopeptidase activity (B. levii): 51 and 54
Aminopeptidase activity (C. ochracea): 108
Aminopeptidase activity (B. loescheii): 81 and 89
Aminopeptidase activity [1]: 176
Aminopeptidase activity (B. corporis): 75
Aminopeptidase activity (B. melaninogenicus): 70
Aminopeptidase activity (C. sputigena): 86
Aminopeptidase activity (B. intermedius): 63
Aminopeptidase activity (B. denticola): 86
Aminopeptidase activity (S. sanguis): 5 and 4
Aminopeptidase activity (Campylobacter sputorum): 3
Aminopeptidase activity (V. parvula): 0
Aminopeptidase activity ("Anaerobic vibrio"): 3
Aminopeptidase activity (S. mutans): 14
Aminopeptidase activity (Eikenella corrodens): 0
Aminopeptidase activity (Veillonella sp.): 1
Aminopeptidase activity (A. viscosus): 5 and 7
Aminopeptidase activity (A. seminis): 0
Aminopeptidase activity (Fusobacterium nucleatum): 2 and 1
Aminopeptidase activity (Fusobacterium nucleatum; strain D31A-24, β-naphthylamine liberated after 60 minutes, 37° C.): 2 nmol
Aminopeptidase activity (L. fermentum): 0
Aminopeptidase activity (F. periodonticum): 1
Aminopeptidase activity (Lactobacillus casei): 0
Aminopeptidase activity (Haemophilus aphrophilus): 0
Aminopeptidase activity (Veillonella alcalesens): 1
Aminopeptidase activity (A. equuli): 0
Aminopeptidase activity (A. suis): 0
